The target in the test is human PDHK2 (hPDHK2) (Homo sapiens (Human), UniProt Q15119). Briefly: Inhibitory action of PDHK2 activity (PDH/hPDHK2 complex, residual PDH activity by NADH absorbance at 340 nm). The format is biochemical. The settings on record: FLAG-tagged recombinant hPDHK2 with porcine heart PDH complex; PDHK reaction 45 min at room temperature. Here is the method: In the case of human PDHK2 (hPDHK2, NCBI Reference Database Accession number NM_002611.4), modified hPDHK2 cDNA wherein FLAG-Tag sequence was added to the N terminal of hPDHK2 cDNA clone (pReceiver-M01/PDK2-GeneCopoeia) as the base was prepared by polymerase chain reaction (PCR) and ligated to the NdeI/EcoRI site of pET-17b vector (Merck KGaA, Catalog Number 69663-3). The recombinant construct was transformed into Escherichia coli DH5a. The recombinant clones were identified, and plasmid DNA was isolated and subjected to the DNA sequence analysis. One clone which had the expected nucleic acid sequence was selected for expression work.
For expression of hPDHK2 activity, Escherichia coli strain BL21(DE3) cells (Merck KGaA, Catalog Number 69450-4) were transformed with the pET17b vector containing modified hPDHK2 cDNA. The Escherichia coli were grown to an optical density 0.6 ([…]) at 30° C. Protein expression was induced by the addition of 500 μmol/L isopropyl-β-thiogalactopyranoside. The Escherichia coli were cultured at 20° C. for 17 to for 18 hr and harvested by centrifugation. The harvested Escherichia coli was resuspended in a suspension buffer (20 mmol/L HEPES-NaOH, 500 mmol/L sodium chloride, 1% ethylene glycol, 0.1% Pluronic (registered trademark) F-68 (pH 8.0), cOmplete, EDTA-free (Roche) (pH 8.0)), and disrupted by a microfluidizer M-110H (MIZUHO INDUSTRIAL CO., LTD.). The precipitate was removed by centrifugation and the supernatant was added to DDDDK-tagged Protein PURIFICATION GEL (MEDICAL & BIOLOGICAL LABORATORIES CO., LTD., Code No. 3329). DDDDK-tagged Protein PURIFICATION GEL was washed with a washing buffer (20 mmol/L HEPES-NaOH, 500 mmol/L sodium chloride, 1% ethylene glycol, 0.1% Pluronic F-68 (pH 8.0)) and the bound protein was eluted with elution buffer 1 (20 mmol/L HEPES-NaOH, 100 μg/mL peptide (amino acid sequence DYKDDDDK) (SEQ ID NO: 1), 500 mmol/L sodium chloride, 1% ethylene glycol, 0.1% Pluronic F-68 (pH 8.0)). The eluted fractions containing FLAG-Tagged protein were pooled, concentrated by an ultrafiltration method, added to a gel filtration column (HiLoad 26/60 Superdex 200 (GE Healthcare Life Sciences, Code No. 17-1070-01)), and eluted with elution buffer 2 (20 mmol/L HEPES-NaOH, 150 mmol/L sodium chloride, 0.5 mmol/L ethylenediaminetetraacetic acid (EDTA), 1% ethylene glycol, 0.1% Pluronic F-68 (pH 8.0)). The eluted fractions were pooled and preserved at −80° C.
PDH (porcine heart PDH complex, Sigma P7032) and 0.5 μg/mL hPDHK2 were mixed in an assay buffer (50 mmol/L 3-morpholinopropanesulfonic acid (pH 7.0), 20 mmol/L dipotassium hydrogen phosphate, 60 mmol/L potassium chloride, 2 mmol/L magnesium chloride, 0.4 mmol/L EDTA, 0.2% poloxamer, 2 mmol/L dithiothreitol) so that the final concentration of PDH was 0.025 U/mL, and the mixture was incubated at 4° C. overnight to obtain a PDH/hPDHK2 complex solution.
PDH was mixed with the assay buffer so that the final concentration was 0.025 U/mL, and the mixture was incubated at 4° C. overnight to prepare a PDH solution.
The test compounds were diluted with DMSO. […] DMSO (1.5 μL) was added to control wells instead of test compound. In addition, DMSO (1.5 μL) was added to blank wells instead of the test compound, and PDH solution was added instead of the PDH/hPDHK2 complex solution. To measure an inhibitory action of the test compound on the PDHK activity inherent in the PDH solution, a test compound was added and the PDH solution instead of the PDH/hPDHK2 complex solution was added to a blank+test compound well.
Then, 10 μL of substrates (5 mmol/L sodium pyruvate, 5 mmol/L Coenzyme A, 12 mmol/L NAD, 5 mmol/L thiamine pyrophosphate, diluted with assay buffer) were added. The mixture was incubated at room temperature for 90 min, and the residual PDH activity was measured.
The absorbance of each well at 340 nm was measured using a microplate reader to detect NADH produced by the PDH reaction. […]
`C[C@H]1Cn2nc(OCC(C)(C)O)cc2-c2onc([C@@](C)(O)C(F)(F)F)c21` (racemic) [Example 14]: the IC50 (usually the midpoint of a concentration-inhibition curve) came out at 14.4 nM.
On to `C[C@H]1Cn2nc(OCc3ccccc3)cc2-c2onc([C@@](C)(O)C(F)(F)F)c21` (racemic) [Example 15], for which the IC50 turned out to be 10.9 nM.
Then `C[C@H]1Cc2c(cnn2C(C)(C)C)-c2onc([C@@](C)(O)C(F)(F)F)c21` (racemic) [Example 16], with 12.2 nM; and `C[C@H]1Cn2nccc2-c2onc([C@@](C)(O)C(F)(F)F)c21` (racemic) [Example 17], with 21.3 nM; and `C[C@H]1Cc2c(cnn2C2CC2)-c2onc([C@@](C)(O)C(F)(F)F)c21` (racemic) [Example 18], with 12.5 nM.
For `C[C@H]1Cc2[nH]ncc2-c2onc([C@@](C)(O)C(F)(F)F)c21` (racemic) [Example 20] the value was 22.6 nM.
For `C[C@H]1Cc2c(cnn2C(F)F)-c2onc([C@@](C)(O)C(F)(F)F)c21` (racemic) [Example 21] the value was 19.8 nM.
With `C[C@H]1Cc2nn(C(F)F)cc2-c2onc([C@@](C)(O)C(F)(F)F)c21` (racemic) [Example 22], the 50% inhibitory concentration (IC50) was 22.4 nM.
Then `C[C@H]1Cc2nn(C)cc2-c2onc([C@@](C)(O)C(F)(F)F)c21` (racemic) [Example 23], with 18.8 nM; and `C[C@H]1Cc2c(cnn2C)-c2onc([C@@](C)(O)C(F)(F)F)c21` (racemic) [Example 24], with 25.4 nM.
Then `C[C@H]1Cc2nn(CCC#N)cc2-c2onc([C@@](C)(O)C(F)(F)F)c21` (racemic) [Example 32], with 20.1 nM; and `C[C@H]1Cn2nc(OCCC(C)(C)O)cc2-c2onc([C@@](C)(O)C(F)(F)F)c21` (racemic) [Example 34], with 14.7 nM.
Then `C[C@H]1Cn2nc(OC3CCOCC3)cc2-c2onc([C@@](C)(O)C(F)(F)F)c21` (racemic) [Example 35], with 17.8 nM.
Turning to `C[C@H]1Cn2nc(O[C@H]3CCOC3)cc2-c2onc([C@@](C)(O)C(F)(F)F)c21` (racemic) [Example 36], the IC50 is 14 nM.
For `C[C@H]1Cn2nc(O[C@H]3CC[C@](C)(O)CC3)cc2-c2onc([C@@](C)(O)C(F)(F)F)c21` (racemic) [Example 37] the value was 17.2 nM; for `C[C@H]1Cc2nn(CC(C)(C)O)cc2-c2onc([C@@](C)(O)C(F)(F)F)c21` (racemic) [Example 38], 25.2 nM; for `C[C@H]1Cc2c(cnn2CC(C)(C)O)-c2onc([C@@](C)(O)C(F)(F)F)c21` (racemic) [Example 39], 14.4 nM.
For `C[C@H]1Cn2nc(OCC#N)cc2-c2onc([C@@](C)(O)C(F)(F)F)c21` (racemic) [Example 42] the value was 19.2 nM; for `C[C@H]1Cn2nc(OCF)cc2-c2onc([C@@](C)(O)C(F)(F)F)c21` (racemic) [Example 44], 18.3 nM.
Then `C[C@H]1Cn2nc(OC(F)F)cc2-c2onc([C@@](C)(O)C(F)(F)F)c21` (racemic) [Example 45], with 26.4 nM; and `C[C@H]1Cn2nc(OCC3COC3)cc2-c2onc([C@@](C)(O)C(F)(F)F)c21` (racemic) [Example 46], with 15.9 nM.
On to `C[C@H]1Cn2nc(O[C@H]3C[C@](C)(C#N)C3)cc2-c2onc([C@@](C)(O)C(F)(F)F)c21` (racemic) [Example 47], for which the IC50 was 25.8 nM.
Then `C[C@H]1Cn2nc(O[C@H]3C[C@@](C)(C#N)C3)cc2-c2onc([C@@](C)(O)C(F)(F)F)c21` (racemic) [Example 48], with 18.1 nM; and `C[C@H]1Cc2c(cnn2CC#N)-c2onc([C@@](C)(O)C(F)(F)F)c21` (racemic) [Example 50], with 14.5 nM; and `C[C@H]1Cc2c(cnn2C23CC(C#N)(C2)C3)-c2onc([C@@](C)(O)C(F)(F)F)c21` (racemic) [Example 51], with 13.7 nM.
Then `C[C@H]1Cn2nc(C3CCOCC3)cc2-c2onc([C@@](C)(O)C(F)(F)F)c21` (racemic) [Example 52], with 15 nM.
Then `C[C@H]1Cc2c(cnn2[C@H]2C[C@](C)(C#N)C2)-c2onc([C@@](C)(O)C(F)(F)F)c21` (racemic) [Example 53, (1S,3r)-1-methyl-3-((S)-4-methyl-3-((R)-1,1,1-trifluoro-2-hydroxypropan-2-yl)-4,5-dihydro-6H-isoxazolo[5,4-e]indazol-6-yl)cyclobutane-1-carbonitrile and enantiomer thereof], with 8.8 nM; and `C[C@H]1Cc2nn([C@H]3C[C@](C)(C#N)C3)cc2-c2onc([C@@](C)(O)C(F)(F)F)c21` (racemic) [Example 54, (1S,3r)-1-methyl-3-((S)-4-methyl-3-((R)-1,1,1-trifluoro-2-hydroxypropan-2-yl)-4,5-dihydro-7H-isoxazolo[5,4-e]indazol-7-yl)cyclobutane-1-carbonitrile and enantiomer thereof], with 7.2 nM.
Turning to `C[C@H]1Cc2nn([C@H]3CC[C@](C)(O)CC3)cc2-c2onc([C@@](C)(O)C(F)(F)F)c21` (racemic) [Example 55, (1S,4r)-1-methyl-4-((S)-4-methyl-3-((R)-1,1,1-trifluoro-2-hydroxypropan-2-yl)-4,5-dihydro-7H-isoxazolo[5,4-e]indazol-7-yl)cyclohexan-1-ol and enantiomer thereof], the IC50 turned out to be 14.3 nM.
For `C[C@H]1Cc2c(cnn2[C@H]2CC[C@](C)(O)CC2)-c2onc([C@@](C)(O)C(F)(F)F)c21` (racemic) [Example 56, (1S,4r)-1-methyl-4-((S)-4-methyl-3-((R)-1,1,1-trifluoro-2-hydroxypropan-2-yl)-4,5-dihydro-6H-isoxazolo[5,4-e]indazol-6-yl)cyclohexan-1-ol and enantiomer thereof] the value was 10.7 nM; for `C[C@H]1Cc2c(cnn2[C@H]2C[C@@](C)(C#N)C2)-c2onc([C@@](C)(O)C(F)(F)F)c21` (racemic) [Example 57, (1R,3s)-1-methyl-3-((S)-4-methyl-3-((R)-1,1,1-trifluoro-2-hydroxypropan-2-yl)-4,5-dihydro-6H-isoxazolo[5,4-e]indazol-6-yl)cyclobutane-1-carbonitrile and enantiomer thereof], 28.5 nM; for `C[C@H]1Cc2nn([C@H]3C[C@@](C)(C#N)C3)cc2-c2onc([C@@](C)(O)C(F)(F)F)c21` (racemic) [Example 58, (1R,3s)-1-methyl-3-((S)-4-methyl-3-((R)-1,1,1-trifluoro-2-hydroxypropan-2-yl)-4,5-dihydro-7H-isoxazolo[5,4-e]indazol-7-yl)cyclobutane-1-carbonitrile and enantiomer thereof], 20.4 nM.
Regarding `C[C@H]1Cn2nc(C(F)(F)F)cc2-c2cnnc([C@@](C)(O)C(F)(F)F)c21` (racemic) [Example 99, mixture of (R)-1,1,1-trifluoro-2-((R)-5-methyl-9-(trifluoromethyl)-5,6-dihydropyrazolo[1′,5′:1,2]pyrido[3,4-d]pyridazin-4-yl)propan-2-ol and (S)-1,1,1-trifluoro-2-((S)-5-methyl-9-(trifluoromethyl)-5,6-dihydropyrazolo[1′,5′:1,2]pyrido[3,4-d]pyridazin-4-yl)propan-2-ol], the IC50 is 23.4 nM.

The values above are taken from patent publication US20240417406A1, “NITROGEN-CONTAINING TRICYCLIC COMPOUND AND PHARMACEUTICAL USE THEREOF” (JAPAN TOBACCO INC., priority 2021, published 2024).
